Measurements: patent US20120309683A1, “USE OF […] ADENYLATE CYCLASE-ACTIVATING POLYPEPTIDE (PACAP) AND PACAP ANALOGS AS ADJUNCTIVE TREATMENTS WITH INHIBITORS OF CALCINEURIN OR INHIBITORS OF THE […] TARGET OF RAPAMYCIN (mTOR) COMPLEXES” (The Administrators of the Tulane Educational Fund, priority 2010, published 2012)
Read-outs that look alike come from different tables or passages of the source. Where no end group is shown, it is not given here. [ ]: non-standard residue; d: D form. The star is where a group is joined. Palmitoyl = CCCCCCCCCCCCCCCC(=O)*; Aib = CC(C)(N)C(=O)O

Experiments:
[1] = tested on: HK-2 human kidney cells (human renal proximal tubule epithelial cells); test: Sirolimus-induced apoptotic cell death of HK-2 cells, histone-associated DNA fragmentation; assay type: cell-based
Experimental: The HK-2 human kidney cells were cultured in Keratinocyte-Serum Free Medium supplemented with recombinant epidermal growth factor and bovine pituitary extract. The dose-dependent inhibitory effect of PACAP38 on apoptotic cell death was assessed by the quantitative determination of cytoplasmic histone-associated DNA-fragmentation (mono- and oligonucleosomes) after exposure to 100 ng/ml of sirolimus for 24 hours. Each value represents the mean plus/minus the standard error of eight determinations. **p<0.01 and *p<0.05 compared to the cells treated only with sirolimus.

[2] = tested on: light-chain immunoglobulin-secreting human multiple myeloma cells; test: Proliferation of multiple myeloma cells with sirolimus, bromodeoxyuridine incorporation; assay type: cell-based; details: for rate of proliferation of the human B-lymphocyte cell line: multiple myeloma cells with sirolimus, 10^−9 M to 10^−6 M peptide, 24-hour incubation
Experimental: The light-chain immunoglobulin-secreting human multiple myeloma cells were cultured in RPMI 1640 medium supplemented with 10% non-inactivated fetal bovine serum and 0.05 mM 2-mercaptoethanol. The effects of PACAP38, PACAP27 and PACAP analogs on myeloma cell proliferation were assessed by determining incorporation of bromodeoxyuridine into DNA during cell division. The number of myeloma cells approximately doubled during the 24-hour incubation period in the absence of treatment with PACAP-like peptides. Four different concentrations, ranging from 10^−9 M to 10^−6 M, were tested for PACAP38, PACAP27 and each of the PACAP analogs. Each value represents the mean plus/minus the standard error of four determinations. **p<0.01 and *p<0.05 compared to the cells treated only with sirolimus.
The effects of PACAP38, PACAP27 and PACAP analogs on human cell proliferation were assessed by determining incorporation of bromodeoxyuridine into DNA during cell division. […] At the highest dose (10^−6 M), PACAP38 inhibited the proliferation by more than 50%.

[3] = tested on: human T-lymphocyte cells (Jurkat); test: Methotrexate-induced apoptotic cell death of Jurkat cells; assay type: cell-based; details: methotrexate and PACAP38 for 24 hours, same dose range
Experimental: The Jurkat cells were cultured in RPMI 1640 medium supplemented with 10% heat-inactivated fetal calf serum. The cells were treated with PACAP38 for 24 hours. The […] effects of PACAP38 on apoptotic cell death were assessed by the quantitative determination of cytoplasmic histone-associated DNA-fragmentation (mono- and oligonucleosomes) after exposure to methotrexate for 24 hours. Each value represents the mean plus/minus the standard error of eight determinations. **p<0.01 and *p<0.05 compared to the cells treated only with methotrexate.
(§1) An ideal cytoprotective adjunctive agent should have the same effect as the main therapeutic agent against the intended therapeutic target, but protect the patient against the deleterious “off-target” effects of the main therapeutic. […] Furthermore, these experiments indicate that PACAP-like compounds would be beneficial as monotherapeutics for the treatment of leukemias. These experiments also indicate that combination therapy with PACAP-like compounds plus azathioprine or 6-mercaptopurine would result in an increased therapeutic index compared to azathioprine or 6-mercaptopurine, respectively, alone.

rat [4] = details: 48 hours, cited from earlier work
[5] = tested on: HK-2 human kidney cells (human renal proximal tubule epithelial cells); test: Tacrolimus-induced loss of viability of HK-2 cells, lactate dehydrogenase in intact cells; assay type: cell-based; details: for loss of viable human renal proximal tubule epithelial cells caused by tacrolimus: various concentrations of peptide added to medium
Experimental: The HK-2 human kidney cells were cultured in Keratinocyte-Serum Free Medium supplemented with recombinant epidermal growth factor and bovine pituitary extract. […] Each value represents the mean plus/minus the standard error of five determinations. **p<0.01 and *p<0.05 compared to the cells treated only with tacrolimus.

[6] = tested on: human renal proximal tubule epithelial cells; test: Methotrexate-induced apoptotic cell death of human renal proximal tubule epithelial cells; assay type: cell-based; details: methotrexate for 24 hours
Experimental: The inhibitory effects of PACAP38 on apoptotic cell death were assessed by the quantitative determination of cytoplasmic histone-associated DNA-fragmentation (mono- and oligonucleosomes) after exposure to methotrexate for 24 hours. Each value represents the mean plus/minus the standard deviation of six determinations. **p<0.01 and *p<0.05 compared to the cells treated only with methotrexate.
as §1

rat [7] = details: 15-minute occlusion, continuous infusion; cited from earlier work
[8] = tested on: human renal proximal tubule epithelial cells (HK-2); test: TGF-β1 secretion by HK-2 cells treated with cyclosporine A; assay type: cell-based; details: PACAP38 10^−8 M, cyclosporine A-treated HK-2 cells
Experimental: The effects of PACAP38 at a concentration of 10^−8 M on the production of TGF-β1 were assessed by determining the concentration of TGF-β1 in the culture medium. Each value represents the mean plus/minus the standard error of six determinations. **p<0.01 compared to the cells treated only with cyclosporine A.

[9] = tested on: Jurkat human T-lymphocyte cells; test: Inhibition by cyclosporine A of IL-2 secretion from Jurkat cells, enhancement by peptides; assay type: cell-based; details: peptide added on top of cyclosporine, 24 hours
Experimental: The Jurkat human T-lymphocyte cells were cultured in RPMI 1640 medium supplemented with 10% heat-inactivated fetal calf serum. The Jurkat cells were stimulated with mitogens (1 mg/ml of PHA and 50 ng/ml of PMA). […] Each value represents the mean plus/minus the standard error of eight determinations. **p<0.01 and *p<0.05 compared to the cells treated only with the mitogens.
However, when Jurkat cells were stimulated with PHA and PMA, large quantities of interleukin-2 could be detected in the medium (FIG. 11).

HK-2 human kidney cells = test: Morphology of HK-2 cells, phase-contrast microscopy; assay type: cell-based; details: 50 μM cyclosporine A and 10^−8 M PACAP38 for 48 hours
Experimental: The cells were visualized with an inverted phase-contrast microscope. The HK-2 human kidney cells were grown to 80% confluence. (A) The morphology of the HK-2 cells grown in normal medium.

[10] = tested on: HK-2 human kidney cells (human renal proximal tubule epithelial cells); test: Cyclosporine A-induced injury (cytotoxicity) of HK-2 cells, lactate dehydrogenase in culture medium; assay type: cell-based; details: PACAP38 10^−8 M added to medium of cyclosporine A-treated HK-2 cells
Experimental: The effects of PACAP38 at a concentration of 10^−8 M on cell injury were assessed by determining the activity of the cytoplasmic enzyme lactate dehydrogenase in the culture medium. Each value represents the mean plus/minus the standard error of four determinations. **p<0.01 compared to the cells treated only with cyclosporine A.

[11] = tested on: Jurkat human T-lymphocyte cells; test: Mitogen-stimulated secretion of interleukin-2 from Jurkat cells; assay type: cell-based; details: PHA and PMA stimulated Jurkat cells; for mitogen-induced secretion of interleukin-2 into the medium: 24 hours
Experimental: The Jurkat human T-lymphocyte cells were cultured in RPMI 1640 medium supplemented with 10% heat-inactivated fetal calf serum. The Jurkat cells were stimulated with the mitogens phytohemagglutinin (PHA, 1 mg/ml) and phorbol 12-myristate 13-acetate (PMA, 50 ng/ml). […] Each value represents the mean plus/minus the standard error of eight determinations. **p<0.01 and *p<0.05 compared to the cells treated only with the mitogens.
(§2) However, when Jurkat cells were stimulated with PHA and PMA, large quantities of interleukin-2 could be detected in the medium (FIG. 9). […] At the highest dose (10^−5 M), PACAP38 inhibited the proliferation of the Jurkat cells by more than 50%.

Male C57BL/6 mice = test: Cyclosporine A-induced nephrotoxicity in mice (serum creatinine, kidney TGF-β1); assay type: in vivo; details: cyclosporine A 5 mg/kg i.p., 20 μg PACAP38 i.p. 1 h before, 24 and 48 h
Experimental: The control group of mice was injected intraperitoneally with the same volume of saline as for the injections of cyclosporine A and PACAP38 on the same schedule. The mice were euthanized 24 hours after the final injection of PACAP38.
Male C57BL/6 mice were given a single intraperitoneal injection of 5 mg/kg of cyclosporine A. Twenty micrograms of PACAP38 were given intraperitoneally 1 hour before the injection of cyclosporine A and additional doses were given at 24 and 48 hours after the initial dose. The control group of mice was injected intraperitoneally with the same volume of saline as for the injections of cyclosporine A and PACAP38 on the same schedule. The mice were euthanized 24 hours after the final injection of PACAP38.

[12] = tested on: Jurkat human T-lymphocyte cells; test: Proliferation of Jurkat cells, bromodeoxyuridine incorporation; assay type: cell-based; details: for rate of proliferation of the human T-lymphocyte cell line: mitogen-stimulated Jurkat cells, 24 hours
Experimental: The Jurkat human T-lymphocyte cells were cultured in RPMI 1640 medium supplemented with 10% heat-inactivated fetal calf serum. The Jurkat cells were stimulated with mitogens (1 mg/ml of PHA and 50 ng/ml of PMA).
as §2

[13] = tested on: PC-3 human prostate cancer cells; details: nude mice; cited from earlier work
[14] = tested on: NCI-H838 human non-small cell lung cancer cells; details: nude mice; cited from earlier work
[15] = tested on: MCF-7 human breast cancer cells; details: nude mice; cited from earlier work
[16] = rat, in vivo, iv; cited from earlier work

## CO[C@H]1C[C@@H]2CC[C@@H](C)[C@@](O)(O2)C(=O)C(=O)N2CCCC[C@H]2C(=O)O[C@H]([C@H](C)C[C@@H]2CC[C@@H](O)[C@H](OC)C2)CC(=O)[C@H](C)/C=C(\C)[C@@H](O)[C@@H](OC)C(=O)[C@H](C)C[C@H](C)/C=C/C=C/C=C/1C [sirolimus, reference compound]
[1]; 100 ng/ml sirolimus for 24 hours, HK-2 cells
  apoptotic cell death: large significant increase in apoptotic cell death

## PACAP27 (HSDGIFTDSYSRYRKQMAVKKYLAAVL-NH2; listed as Homo sapiens)
[2]
  rate of proliferation of the human B-lymphocyte cell line: significant dose-dependent inhibition

## PACAP38
[3]
  killing of human T lymphocyte cells by methotrexate (apoptotic cell death): potently stimulates the killing
Rat [4]; continuous i.v. infusion beginning 4 hours after start of 2 h MCAO
  reduction of the infarct volume: approximately 51%
Rat [4]; continuous i.v. infusion beginning 8 hours after start of 2 h MCAO
  reduction of the infarct volume: ~22%
Rat [4]; continuous i.v. infusion beginning 12 hours after start of 2 h MCAO
  reduction of the infarct volume: ~12%
[5]; tacrolimus-treated HK-2 cells
  potency as a renoprotectant relative to VIP: significantly more potent than VIP
[5]
  loss of viable human renal proximal tubule epithelial cells caused by tacrolimus: significant dose-dependent reduction
[6]
  toxic side-effects of methotrexate on human renal proximal tubule epithelial cells (apoptotic cell death): potently inhibits the toxic side-effects of methotrexate
[2]; highest dose 10^−6 M
  inhibition of proliferation: more than 50%
[2]
  rate of proliferation of the human B-lymphocyte cell line: significant dose-dependent inhibition
Rat [7]
  reduction in the number of CA1 pyramidal cells at day 7 post-occlusion: significantly reversed
[8]
  cyclosporine A-induced secretion of TGF-β1 into the medium: almost completely prevented the secretion of TGF-β1
[9]
  cyclosporine-induced inhibition of interleukin-2 secretion: small dose-dependent enhancement
HK-2 human kidney cells
  restoration of the cell monolayer, confluence: 70-80%
HK-2 human kidney cells; versus cyclosporine A alone
  number of grossly elongated and filopodia-formatted cells: marked reduction
[10]
  cyclosporine A-induced cell death: almost completely prevented
[1]; highest dose 10^−6 M
  sirolimus-induced apoptotic cell death: almost completely prevented
[1]; varying concentrations of PACAP38
  sirolimus-induced apoptotic cell death: significant dose-dependent reduction
[11]
  relative potency of PACAP38 and VIP on interleukin-2 secretion: appeared to be equipotent
  mitogen-induced secretion of interleukin-2 into the medium: large significant inhibition
Male C57BL/6 mice
  increase in TGF-β1 in the kidney: significantly reduced the increases
  increase in serum creatinine: significantly reduced the increases
[12]; highest dose 10^−5 M
  inhibition of proliferation of Jurkat cells: more than 50%
[12]
  rate of proliferation of the human T-lymphocyte cell line: significant dose-dependent inhibition

## PACAP(6-38) (FTDSYSRYRKQMAVKKYLAAVLGKRYKQRVKNK; ends and bridges not checked; UniProt P18509 137-169, looked up, fragment) [a PACAP/VIP receptor antagonist]
[13]
  growth of xenografts: inhibited the growth
[14]
  growth of xenografts: inhibited the growth
[15]
  growth of xenografts: inhibited the growth

## VIP (HSDAVFTDNYTRLRKQMAVKKYLNSILN-NH2; listed as Homo sapiens)
[5]
  loss of viable human renal proximal tubule epithelial cells caused by tacrolimus: significant dose-dependent reduction
[9]
  cyclosporine-induced inhibition of interleukin-2 secretion: small dose-dependent enhancement
[11]
  mitogen-induced secretion of interleukin-2 into the medium: large significant inhibition
[12]
  rate of proliferation of the human T-lymphocyte cell line: significant dose-dependent inhibition

## [Aib^2]PACAP38 (H[Aib]DGIFTDSYSRYRKQMAVKKYLAAVLGKRYKQRVKNK; ends and bridges not checked)
[2]
  rate of proliferation of the human B-lymphocyte cell line: significant dose-dependent inhibition
[12]
  rate of proliferation of the human T-lymphocyte cell line: significant dose-dependent inhibition

## [Ala^16,Ala^17,D-Lys^38]PACAP38 (HSDGIFTDSYSRYRKAAAVKKYLAAVLGKRYKQRVKN[dK]; ends and bridges not checked)
[5]
  loss of viable human renal proximal tubule epithelial cells caused by tacrolimus: significant dose-dependent reduction

## [Ala^22]PACAP38 (HSDGIFTDSYSRYRKQMAVKKALAAVLGKRYKQRVKNK; ends and bridges not checked)
[2]
  rate of proliferation of the human B-lymphocyte cell line: significant dose-dependent inhibition

## [D-Ser^2,Lys^38-palmitoyl]PACAP38 (H[dS]DGIFTDSYSRYRKQMAVKKYLAAVLGKRYKQRVKNK(Palmitoyl); not fully specified (C-terminus))
[5]
  loss of viable human renal proximal tubule epithelial cells caused by tacrolimus: significant dose-dependent reduction

## [D-Ser^2]PACAP38 (H[dS]DGIFTDSYSRYRKQMAVKKYLAAVLGKRYKQRVKNK; not fully specified (C-terminus))
[5]
  loss of viable human renal proximal tubule epithelial cells caused by tacrolimus: significant dose-dependent reduction
[9]
  cyclosporine-induced inhibition of interleukin-2 secretion: small dose-dependent enhancement
[11]
  mitogen-induced secretion of interleukin-2 into the medium: large significant inhibition
[12]
  rate of proliferation of the human T-lymphocyte cell line: significant dose-dependent inhibition

## [Lys^34]PACAP38 (HSDGIFTDSYSRYRKQMAVKKYLAAVLGKRYKQKVKNK; ends and bridges not checked)
[2]
  rate of proliferation of the human B-lymphocyte cell line: significant dose-dependent inhibition

## [^125I]-PACAP38
[16]
  half-life in the bloodstream: 5 to 6 min
